{"source": "patent US9642859B2", "about": "“Use of capsazepine and analogs thereof to treat cancer” (THE BOARD OF REGENTS OF THE UNIVERSITY OF TEXAS SYSTEM, priority 2012, dated 2017)", "test_system": "OSCC xenografts", "assay": "TUNEL staining of OSCC xenografts", "assay_type": "in vivo, mice", "details": "CPZ treated xenografts, p<0.001", "protocol": "FIG. 15A-15C. TUNEL staining of OSCC xenografts. FIG. 15A: Representative photomicrograph of TUNEL stain of HSC3 xenograft (10×) treated with vehicle control. […] FIG. 15B: Number of apoptotic figures per field in vehicle and 40 μg capsazepine (CPZ) treated SCC4 xenografts. FIG. 15C: Number of apoptotic figures per field in vehicle and CPZ (20 m) treated SCC25 xenografts. Student's T-Test of the average of six fields with n=3; ***p<0.001.\nAt the conclusion of the experiment, serum was collected for liver and kidney function analysis. […] Tumors were analyzed histologically using H&E (hematoxylin and eosin) and TUNEL (terminal deoxyribonucleotidyl transferase-mediated dUTP nick end labeling) staining for detection of DNA fragmentation associated with apoptosis, and apoptotic figures were quantified. [FIGS. 15-1 to 15-3] […] Therefore, CPZ empirically has shown promise for being a well-tolerated treatment for OSCC."}
{"smiles": "Oc1cc2c(cc1O)CN(C(=S)NCCc1ccc(Cl)cc1)CCC2", "note": "[CPZ, 2-[2-(4-chlorphenyl)ethylamino-thiocarbonyl]-7,8-dihydroxy-2,3,4,5-tetrahydro-1H-2-benzazepine]", "values": [{"measurement": "apoptotic figures in treated tumors (TUNEL)", "result": "significant increase in apoptotic figures"}]}
